Measurements reported in article PMC2722925 (Biochemistry, 2008).
“And” between values parts separate entries of the source, which are not always exact repeats. Equal entries are not always repeated. Where two headings read alike, the source gives them in different places.

Legend:
[1] = molecular target: T1, EPPasePGM (EPPase PGM domain, residues 69 to 330) (Bombyx mori, UniProt Q7YTB0); experiment: Phosphatase activity; conditions: for Dephosphorylation by EPPasePGM (substrate specificity): 50 nM EPPasePGM, 1 mM compound, pH 7.5, pNPP as positive control, data not shown; for Km: substrate of wild-type EPPasePGM; for Km / kcat: pH 7.5, 37 °C; for kcat: substrate turnover by wild-type EPPasePGM, 50 nM enzyme
T1 sequence (Q7YTB0 69-330 isoform Q7YTB0-1): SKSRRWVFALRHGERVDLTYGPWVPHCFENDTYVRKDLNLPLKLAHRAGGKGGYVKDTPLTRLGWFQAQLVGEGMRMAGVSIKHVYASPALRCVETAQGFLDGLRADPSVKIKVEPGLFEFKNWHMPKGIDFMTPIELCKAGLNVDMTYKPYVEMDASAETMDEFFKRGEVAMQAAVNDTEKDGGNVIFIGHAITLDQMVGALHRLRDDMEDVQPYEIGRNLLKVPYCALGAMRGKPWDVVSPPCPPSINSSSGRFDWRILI

EPPase [2] = experiment: Phosphatase activity of native or recombinant full-length EPPase; assay type: biochemical, Bombyx mori; conditions: E22P versus pTyr-peptide
EPPase [3] = conditions: native or recombinant full-length EPPase; ref [9]; cited from earlier work
EPPasePGM = molecular target: T2, EPPasePGM (Bombyx mori, UniProt Q7YTB0); experiment: Inhibition of EPPasePGM pNPP hydrolysis; assay type: biochemical
T2 sequence (Q7YTB0 69-330 isoform Q7YTB0-1): T1 sequence (Q7YTB0 69-330 isoform Q7YTB0-1)

EPPasePGM K196S = EPPasePGM K196S (Bombyx mori, UniProt Q7YTB0, K526S); assay type: biochemical
EPPasePGM K292S [4] = molecular target: T3, EPPasePGM K292S (Bombyx mori, UniProt Q7YTB0, K622S); assay type: biochemical
Sts-1PGM = Sts-1PGM (Mus musculus, UniProt Q8BGG7); experiment: Phosphatase activity; assay type: biochemical; conditions: for Km: substrate of Sts-1PGM; for kcat: substrate turnover by Sts-1PGM
EPPasePGM K292S [5] = molecular target: T3, EPPasePGM K292S; experiment: biochemical
EPPasePGM K196D = EPPasePGM K196D (Bombyx mori, UniProt Q7YTB0, K526D); experiment: Phosphatase activity of EPPasePGM K196D mutant; assay type: biochemical
[6] = IC50, 1 mM pNPP, 50 nM EPPasePGM, 37 °C, pH 7.5
[7] = IC50, 1 mM pNPP, 50 nM EPPasePGM, 37 °C, text values in mM

T3 sequence (Q7YTB0 399-660 K622S): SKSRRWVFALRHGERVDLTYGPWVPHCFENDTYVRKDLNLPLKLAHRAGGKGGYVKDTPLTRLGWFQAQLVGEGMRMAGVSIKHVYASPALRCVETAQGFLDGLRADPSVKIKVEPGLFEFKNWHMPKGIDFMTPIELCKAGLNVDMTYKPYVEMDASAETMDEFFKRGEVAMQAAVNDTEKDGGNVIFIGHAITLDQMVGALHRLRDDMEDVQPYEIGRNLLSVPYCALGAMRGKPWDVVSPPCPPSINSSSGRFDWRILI
Sts-1PGM, sequence (Q8BGG7 369-638 limits assumed): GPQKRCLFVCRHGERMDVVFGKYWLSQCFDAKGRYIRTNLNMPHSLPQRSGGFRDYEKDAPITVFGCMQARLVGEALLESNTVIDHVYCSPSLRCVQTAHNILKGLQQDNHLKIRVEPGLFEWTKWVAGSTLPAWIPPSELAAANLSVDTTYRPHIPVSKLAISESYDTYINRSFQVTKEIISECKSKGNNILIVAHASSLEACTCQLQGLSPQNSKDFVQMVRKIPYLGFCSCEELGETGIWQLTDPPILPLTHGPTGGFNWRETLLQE
EPPasePGM K196S, sequence (Q7YTB0 399-660 K526S): as the sequence (Q7YTB0 399-660 K622S) above, with K128S, S224K counted along it
EPPasePGM K196D, sequence (Q7YTB0 399-660 K526D): as the sequence (Q7YTB0 399-660 K622S) above, with K128D, S224K counted along it

Question: With `O=P(O)(O)Oc1cccc2ccccc12` [1-naphtyl phosphate] as the molecule, how does the “Dephosphorylation by EPPasePGM (substrate specificity)” value (“Dephosphorylation by EPPasePGM” below) [1] read?
Answer: failed to dephosphorylate

Question: Which “kcat for E22P relative to pTyr-peptide (times lower)” value (EPPase [2]) does the source give for `C[C@H](C(CCC(C)(C)O)OP(=O)(O)O)[C@H]1CCC2(O)C3=CC(=O)[C@@H]4C[C@@H](O)[C@@H](O)C[C@]4(C)[C@H]3CC[C@]12C` (stereo partly drawn) [E22P, ecdysone 22-phosphate] here?
Answer: 8

Question: And the Km (EPPase [3])?
Answer: 5.9 µM

Question: And the kcat (EPPase [3])?
Answer: 0.94 s⁻¹

Question: For `O=C(O)[C@H](O)[C@@H](O)C(=O)O` [L-tartrate], which “Inhibition of pNPP hydrolysis by EPPasePGM” value (EPPasePGM; concentrations as high as 100 mM) is on record?
Answer: did not inhibit

Question: What does the source list for `O=P(O)(O)O` [Phosphate]?
Answer: Ki (EPPasePGM): 25800 µM; IC50 (EPPasePGM; [6]): 47.1 mM; IC50 (EPPasePGM; [7]): 47 ± 11 mM

Question: For `C[C@]12C=CC(=O)C=C1CC[C@@H]1[C@@H]2[C@@H](O)C[C@@]2(C)[C@H]1CC[C@]2(O)C(=O)COP(=O)([O-])[O-].[Na+].[Na+]` [Prednisolone 21P, prednisolone 21-phosphate disodium salt], which Km (EPPasePGM K196S) is on record?
Answer: 1060 ± 240 µM

Question: And the kcat (EPPasePGM K196S)?
Answer: 6.1 s⁻¹

Question: And the Km (EPPasePGM K292S [4])?
Answer: 510 ± 230 µM

Question: And the kcat (EPPasePGM K292S [4])?
Answer: 4.2 s⁻¹

Question: What about the Km [1] of the same molecule?
Answer: 650 ± 170 µM

Question: And the kcat [1]?
Answer: 5.9 s⁻¹

Question: What about the Km (Sts-1PGM) of the same molecule?
Answer: 450 ± 90 µM

Question: And the kcat (Sts-1PGM)?
Answer: 0.15 s⁻¹

Question: With `[O]=[W](=[O])([OH])[OH]` [Tungstate] as the molecule, how does the IC50 (EPPasePGM) read?
Answer: 0.052 mM

Question: What about the Ki (EPPasePGM) of the same molecule?
Answer: 34 µM

Question: What about the IC50 (EPPasePGM K292S [5]) of the same molecule?
Answer: 70 µM

Question: For `[O]=[V]([OH])([OH])[OH]` [Vanadate], which Ki (EPPasePGM) is on record?
Answer: 1900 µM

Question: And the IC50 (EPPasePGM; [6])?
Answer: 2.91 mM

Question: And the IC50 (EPPasePGM; [7])?
Answer: 2.9 ± 0.43 mM

Question: For `O=C(CO)[C@@H](O)[C@H](O)[C@H](O)COP(=O)(O)O` [fructose-6-phosphate], which “Dephosphorylation by EPPasePGM” value [1] is on record?
Answer: failed to dephosphorylate

Question: For `O=[N+]([O-])c1ccc(OP(=O)(O)O)cc1` [pNPP, para-nitrophenylphosphate], which Km (EPPasePGM K196S) is on record?
Answer: 2700 ± 160 µM

Question: And the kcat (EPPasePGM K196S)?
Answer: 5.0 s⁻¹

Question: And the Km (EPPasePGM K292S [4])?
Answer: 2400 ± 200 µM

Question: What about the kcat (EPPasePGM K292S [4]) of the same molecule?
Answer: 6.3 s⁻¹

Question: And the “kcat of EPPasePGM relative to Sts-1PGM (fold slower)” value ([1]; pNPP hydrolysis)?
Answer: 6

Question: What about the “kcat/Km of EPPasePGM relative to Sts-1PGM (fold slower)” value ([1]; pNPP hydrolysis) of the same molecule?
Answer: 20

Question: What about the Km [1] of the same molecule?
Answer: 1900 ± 200 µM

Question: And the kcat [1]?
Answer: 11.7 ± 0.6 s⁻¹ and 11.7 s⁻¹

Question: What about the Km (EPPasePGM K196D) of the same molecule?
Answer: 2500 ± 200 µM

Question: And the kcat (EPPasePGM K196D)?
Answer: 2.4 s⁻¹

Question: What about the Km (Sts-1PGM) of the same molecule?
Answer: 500 ± 70 µM

Question: What about the kcat (Sts-1PGM) of the same molecule?
Answer: 70.1 s⁻¹

Question: And the Km (EPPase [3])?
Answer: 13100 µM

Question: And the kcat (EPPase [3])?
Answer: 135 s⁻¹

Question: Which Km [1] does the source give for `C[C@H]1C[C@H]2[C@@H]3CCC4=CC(=O)C=C[C@]4(C)[C@@]3(F)[C@@H](O)C[C@]2(C)[C@@]1(O)C(=O)COP(=O)([O-])[O-].[Na+].[Na+]` [β-Methasone 21P, β-methasone 21-phosphate disodium salt] here?
Answer: 730 ± 320 µM

Question: What about the kcat [1] of the same molecule?
Answer: 10.2 s⁻¹

Question: Which “Dephosphorylation by EPPasePGM” value [1] does the source give for `O=P(O)(O)OC[C@H]1O[C@@H](O)[C@H](O)[C@@H](O)[C@@H]1O` [β-glucose-6-phosphate] here?
Answer: failed to dephosphorylate

Question: For `O=P(O)(O)OC(CO)CO` [β-phospho-glycerol], which “Dephosphorylation by EPPasePGM” value [1] is on record?
Answer: failed to dephosphorylate

Question: For `O=P(O)(O)OC[C@H]1O[C@@H](O)[C@H](O)[C@@H]1O` [β-ribose-5-phosphate], which “Dephosphorylation by EPPasePGM” value [1] is on record?
Answer: failed to dephosphorylate
